According to US11286278B2, “DPEP-1 binding agents and methods of use” (Arch Biopartners, Inc., priority 2018, dated 2022):
Entries after “also recorded” stand apart in the source; their conditions may differ. Ends that are not written are not given here.

Assays:
rat DPEP-1 = molecular target: T1, rat DPEP-1 (Rattus norvegicus, UniProt P31430); assay: Immunofluorescence binding of Alexa-488 conjugated peptides to Cos-1 cells transfected with rat DPEP-1; details: Alexa-488 conjugate, on ice 30 minutes
T1 construct: expressed in transfected cells; host or cells: Cos-1
Experimental: Cos-1 cells were transiently transfected with either 3 or 5 μg of membrane dipeptidase (DPEP-1) cDNA corresponding to the rat (Shown in FIG. 5A), human (Shown in FIG. 5B), or canine (Shown in FIG. 5E) DPEP-1 gene using Lipofectamine 2000 (Invitrogen) reagent in OptiMEM medium. 24 hours after transfection, DPEP-1 expresisng cells were re-seeded on collagen coated (neutralized) wells in 24 well plates and allowed to grow for 24 hours at 37° C. […] Cells were blocked with FBS/NBSA/Tween in PBS for 30 minutes on ice. Cells were then washed with PBS and incubated with Alexa-488 (green) conjugated LSALT, GFE-1, control peptide or DPEP-1 antibody ( 1/100) (Sigma) on ice for 30 minutes. […] After incubation, cells were washed with PBS and treated with 10 mg/ml biotin transfer peptide (LSALT, GFE-1 or Control Peptide (KGAL)] for 10 minutes. Cells were then washed with PBS and biotin transfer was enabled by UV activation of the aryl azide groups for 15 minutes at 363 nm. Residual fluid was removed and monolayers were lysed either with octyl-glucoside/RIPA or 8M urea. Isolated supernatants were rotated with 50 μl of neutr-avidin agarose beads at 4° C. for 24 hours. Beads were washed with corresponding buffers, boiled in Laemmli buffer and analyzed by western blot using a DPEP-1 specific antibody (Proteintech).

DPEP1 = molecular target: T2, DPEP1 (Homo sapiens, UniProt P16444); assay: Immunofluorescence binding of Alexa-488 conjugated peptides to Cos-1 cells transfected with human DPEP-1; design: expressed in transfected cells; host or cells: Cos-1; details: Alexa-488 conjugate, on ice 30 minutes
T2 sequence (P16444 17-385): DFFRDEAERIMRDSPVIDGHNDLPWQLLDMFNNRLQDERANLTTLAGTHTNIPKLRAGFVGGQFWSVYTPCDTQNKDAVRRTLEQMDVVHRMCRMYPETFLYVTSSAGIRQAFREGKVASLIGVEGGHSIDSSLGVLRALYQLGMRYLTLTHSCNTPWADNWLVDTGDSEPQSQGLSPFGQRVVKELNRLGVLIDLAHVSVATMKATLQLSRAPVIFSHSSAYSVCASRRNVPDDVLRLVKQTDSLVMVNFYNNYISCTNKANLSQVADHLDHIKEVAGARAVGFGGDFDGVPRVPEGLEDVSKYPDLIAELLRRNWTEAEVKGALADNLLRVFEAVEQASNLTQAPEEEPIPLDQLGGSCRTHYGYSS
Experimental: 24 hours after transfection, DPEP-1 expressing cells weer reseeded on 24 well collagen coated (neutralized) plates and allowed to grow for 24 hours at 37° C. […] Cells were blocked with FBS/NBSA/Tween in PBS for 30 minutes on ice. Cells were then washed with PBS and incubated with Alexa-488 (green) conjugated LSALT, GFE-1, control peptide or DPEP-1 antibody ( 1/100) (Sigma) on ice for 30 minutes. After incubation, cells were washed with PBS and stained with DAPI for 4 minutes on ice. Cells were again washed with PBS, fixed using 4% paraformaldehyde and immunofluoresence microscopy was performed to assess binding. Proteins from human DPEP-1 transfected cells were isolated after 48 hours using octyl-glucoside/RIPA in the absence of protease inhibitors. […] Values shown are the mean ±s.e.m. from six independent experiments; asterisks (***) indicate P<0.001 as compared with DPEP-1 transfected cells (one-way ANOVA with the Neuman-Keuls post-test)[…]. Proteins from transfected cells were isolated after 48 hours using octyl-glucoside/RIPA lysis buffer and western blot analysis was performed to assess DPEP-1 expression using DPEP-1 antibody (Sigma). […]

[1] = Incubation in whole human blood, LC/MS of metabolites; format: in vitro ADME; details: 50 μg/mL, whole human blood (citrate or K2 EDTA), up to 120 min
Experimental: Plasma was separated for each sample and phosphoric acid added to stabilize peptide at each timepoint. Samples were assessed for LSALT and its' metabolites using LC/MS. LSALT metabolites were identified using PEAKS X and database searches against LSALT and the human proteome. […] Transfected cells were positively selected for using geneticin resistance and subcloned to generate stably transfected DPEP1 clones. Stably transfected DPEP1 HEK cells were resuspended and incubated with biotinylated LSALT fragment peptides (50 μM) for 1 hour at 37° C. before PBS washes. Bound biotinylated peptide was detected via secondary streptavidin fluorescent conjugate (30 min. incubation at 37° C.) and washed with PBS. Peptide binding was analyzed via flow cytometer. Percentage of peptide binding was compared relative to negative control. […] LysM^(gfp) mice were subjected to endotoxemia via intravenous injection of lipopolysaccharide (LPS, O111:B4) at a dose of 5 mg/kg. The kidney was imaged using multiphoton microscopy at 4 hours post-injection. Various LSALT fragments was used intravenously to pretreat mice 10 min. before LPS injection. Inflammation was quantified by manual counting of monocyte adhesion in single microscopy fields (LPS vs. Fragment C; n=3-6 fields/group; ***:p=0.004).

[2] = tested on: neutrophil adhesion in the hepatic sinusoids; assay: Neutrophil adhesion in hepatic sinusoids after LPS, intravital microscopy; format: in vivo, mouse; details: LysM gfp mice, LPS 0.5 mg/kg i.p., peptide 1 mM i.v.
Experimental: Six to ten week old LysM^(gfp) mice were injected with 1 mM dose of LSALT or 1KGAL (control) (intravenous) 5 minutes after the injection of 0.5 mg/kg of lipopolysaccharide (intraperitoneal). After 3 hours, animals were injected with ketamine and xylazine to provide general anesthesia. Fluorescently conjugated F4/80 and PECAM-1 antibodies were then administered via jugular vein cannulation and intravital spinning disk confocal microscopy was performed. The livers were imaged for an hour and the number of neutrophils were counted at different time points. Neutrophils which were stationary for ≥30 seconds in the liver sinusoids were counted as adherent cells. Data are representative of three independent experiments. An unpaired 2-tailed student's t-test was performed comparing LSALT, […] control treated group against the LPS treated group (*p<0.05).

T1 sequence (P31430 17-384): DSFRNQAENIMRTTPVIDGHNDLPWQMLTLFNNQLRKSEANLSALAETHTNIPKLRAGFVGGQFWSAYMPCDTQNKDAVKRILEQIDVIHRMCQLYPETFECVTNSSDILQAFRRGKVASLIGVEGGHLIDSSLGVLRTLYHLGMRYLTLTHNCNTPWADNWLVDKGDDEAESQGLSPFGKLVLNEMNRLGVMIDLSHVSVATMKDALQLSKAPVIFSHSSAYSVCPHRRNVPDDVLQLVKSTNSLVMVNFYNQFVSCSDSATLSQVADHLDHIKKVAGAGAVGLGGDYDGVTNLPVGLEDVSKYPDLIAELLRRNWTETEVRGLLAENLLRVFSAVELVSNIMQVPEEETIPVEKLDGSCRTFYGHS

## H-LSALTPSPSWLKYKAL [LSALT]
Rat DPEP-1
  binding of fluorescently labelled peptide to rat DPEP-1 transfected Cos-1 cells: Binds
DPEP1
  binding of fluorescently labelled peptide to human DPEP-1 transfected Cos-1 cells: Binds; also recorded: Fluorescent peptide binding is only seen with DPEP1 transfection
[1]
  metabolism in whole blood: metabolized in whole blood into smaller fragments
[2]
  neutrophil adhesion in the hepatic sinusoids: inhibits neutrophil adhesion in the hepatic sinusoids
